Measured values: patent publication US20230372364A1, “METHOD OF TREATING GABA MEDIATED DISORDERS” (Eliem Therapeutics (UK) Ltd, priority 2020, published 2023)
Where “and” joins values, the source holds several entries; their conditions need not be identical. Identical values can stand only once. Entries after “also recorded” stand apart in the source; their conditions may differ. Marks after values point to notes of the source that are not given here.

Key:
[1] = molecular target: α4β3δ Extra synaptic receptors (GABAA) (Homo sapiens, UniProt P28472+P48169); assay: GABAA receptor potency and efficacy (EC50, Emax), α4β3δ; assay type: cell-based
Sequence of α4β3δ Extra synaptic receptors (GABAA) (P48169 36-554): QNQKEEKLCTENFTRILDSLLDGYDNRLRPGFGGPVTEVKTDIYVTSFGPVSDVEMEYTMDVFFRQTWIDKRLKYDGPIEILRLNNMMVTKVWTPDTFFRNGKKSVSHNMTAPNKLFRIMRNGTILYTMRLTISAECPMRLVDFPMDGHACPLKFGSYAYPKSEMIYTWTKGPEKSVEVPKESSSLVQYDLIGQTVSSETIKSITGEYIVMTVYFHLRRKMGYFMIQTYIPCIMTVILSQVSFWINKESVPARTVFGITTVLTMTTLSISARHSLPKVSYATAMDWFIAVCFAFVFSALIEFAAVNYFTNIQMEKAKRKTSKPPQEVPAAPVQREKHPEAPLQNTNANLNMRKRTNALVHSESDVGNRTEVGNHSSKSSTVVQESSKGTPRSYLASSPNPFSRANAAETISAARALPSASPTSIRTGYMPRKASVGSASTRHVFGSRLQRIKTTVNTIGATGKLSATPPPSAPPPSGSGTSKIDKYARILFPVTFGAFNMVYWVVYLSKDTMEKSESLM
Sequence of α4β3δ Extra synaptic receptors (GABAA) (P28472 26-473): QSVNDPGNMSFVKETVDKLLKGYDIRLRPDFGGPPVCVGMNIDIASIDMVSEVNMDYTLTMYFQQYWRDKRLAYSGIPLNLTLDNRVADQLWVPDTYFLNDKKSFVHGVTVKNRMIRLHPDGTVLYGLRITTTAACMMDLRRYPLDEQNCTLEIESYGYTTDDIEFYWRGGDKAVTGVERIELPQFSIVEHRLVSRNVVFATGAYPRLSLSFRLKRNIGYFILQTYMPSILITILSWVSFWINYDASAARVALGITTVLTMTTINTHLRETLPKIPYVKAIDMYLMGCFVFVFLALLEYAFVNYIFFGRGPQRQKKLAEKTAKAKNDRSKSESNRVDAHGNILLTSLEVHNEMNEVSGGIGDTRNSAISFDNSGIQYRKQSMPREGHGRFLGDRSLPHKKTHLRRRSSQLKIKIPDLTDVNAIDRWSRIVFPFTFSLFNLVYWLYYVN
Sequence of α4β3δ Extra synaptic receptors (GABAA) (O14764 25-452 partner): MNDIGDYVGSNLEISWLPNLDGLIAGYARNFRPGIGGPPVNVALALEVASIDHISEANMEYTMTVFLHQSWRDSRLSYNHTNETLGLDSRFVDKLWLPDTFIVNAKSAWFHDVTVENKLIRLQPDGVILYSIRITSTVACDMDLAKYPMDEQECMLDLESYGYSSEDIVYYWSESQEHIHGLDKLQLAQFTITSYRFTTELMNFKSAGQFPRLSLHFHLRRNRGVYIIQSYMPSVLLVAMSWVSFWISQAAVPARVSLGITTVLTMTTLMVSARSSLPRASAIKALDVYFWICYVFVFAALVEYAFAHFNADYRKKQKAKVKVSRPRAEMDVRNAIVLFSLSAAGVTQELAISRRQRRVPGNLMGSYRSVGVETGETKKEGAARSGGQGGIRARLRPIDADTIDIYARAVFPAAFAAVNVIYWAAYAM

[2] = Single ascending oral dose pharmacokinetics in humans; assay type: in vivo; settings: human
Method: The pharmacokinetic properties of CV-10155 in humans were analyzed. Subjects were given a single oral dose of CV-10155, and plasma concentrations were measured at various time points. Various dosages were given to fasting subjects, and 30 mg dose was given to a subjects in a fed state.
FIG. 15 is a graph of the average plasma concentration of CV-10155 following oral administration to humans. Purple circles represent 5 mg, fasted; green diamonds represent 15 mg, fasted; red squares represent 30 mg fasted; blue triangles represent 30 mg, fed; purple crosses represent 60 mg, fasted; teal 5-pointed stars represent 90 mg, fasted; olive 6-pointed stars represent 135 mg, fasted; and brown 10-pointed stars represent 200 mg fasted.
FIG. 16 is a graph of the average plasma concentration of CV-10155 following oral administration of a 30 mg dose to humans. Blue triangles represent fasted; and red circles represent fed.
The pharmacokinetic properties of CV-10155 and Sage-217 in humans were compared. The day 7 from subjects given either 60 mg CV-10155 in the morning in a fasted state or 30 mg Sage-217 were analyzed. Results from multiple ascending dose studies are shown in Table 10, and results from single ascending dose studies are shown in Table 11.

[3] = test system: human subjects; assay: Single ascending oral dose safety and tolerability in humans; assay type: in vivo
[4] = test system: human subjects; assay: 60 mg once daily for seven days, adverse events in humans (MAD); assay type: in vivo; settings: for AE Sleepiness (Nervous system disorders): listed three times in the table; for AE Headache (Nervous system disorders): listed twice in the table
Method: The effects of CV-10155 in relation to administration at different times of the day and states of feeding were analyzed in humans. Subjects were given 60 mg CV-10155 orally once per day for seven consecutive days, and plasma concentrations were measured at various time points. Doses were administered either in the morning to fasted subjects or in the evening to fed subjects.
Adverse events observed following administration of a single dose of CV-10155 in the evening in a fed state are summarized on Table 6.
A comparison of adverse events observed following administration to fasted subjects in the morning and to fed subjects in the evening is provided in Table 7.
The tolerability of the neurosteroids CV-10155, Sage-217, and Praxis-114 in human subjects were compared. The results from subjects that received 45 mg Praxis-114 in the evening, 60 mg Praxis-114 in the evening, 80 mg Praxis-114 in the evening, or 60 mg CV-10155 in the evening are provided in Table 8, and the results form subjects that received 30 mg Sage-217 or 20 mg Sage-217 are provided in Table 9.

[5] = test system: cardiovascular or respiratory function; assay: In vivo safety pharmacology studies
Method: The no-observed-adverse-effect-level doses were 7.5/mg/kg/day and 6 mg/kg/day in rats and dogs, respectively.

[6] = Human equivalent dose and allometric scaling of anticipated human exposure; settings: 60 kg participant
Method: Justification for Dose—Based on the nonclinical toxicology data, there is not an unreasonable risk of adverse effects. Using the FDA guidance “Estimating the Maximum Safe Starting Dose in Initial Clinical Trials for Therapeutics in Adult Healthy Volunteers” (July, 2005), the calculated human equivalent dose would be 1/2 mg/kg/day or 3/24 mg/kg/day, respectively, based on the 28-day rat no-observed-adverse-effect-level dose of 7.5 mg/kg/day or the 28-day dog no-observed-adverse-effect-level dose of 6 mg/kg/day, respectively. For both species the no-observed-adverse-effect-level dose was the highest dose tested. For a 60 kg participant, this would result in a maximum safe starting dose of (human equivalent dose/10) of 7.2 mg/day or 19/6 mg/day. The starting doses in this Phase 1 study are 5 mg, equivalent to […] for a 60 kg participant. […] These anticipated Cmax and AUC values are ˜80- and 50-fold lower, respectively, than that observed at the no-observed-adverse-effect-level dose in dogs.

[7] = test system: all 18 GABAA receptor channels; assay: Activity at GABAA receptor channels; settings: previously shown
From the text: (§1) The compound of Formula (I) is believed to have binding affinity at the GABA-gated Cl-channel, the kappa opioid receptor, the 5-HT2A receptor, and the androgen receptor. The compound of Formula (I) has previously shown activity at all 18 GABAA receptor channels and the kappa opioid receptor. The compound of Formula (I) had previously shown no activity at the 5-HT2A receptor. Activity at the androgen receptor is has not yet been well studied.

[8] = molecular target: 5-HT2A receptor (Homo sapiens, UniProt P28223); assay: Activity at the 5-HT2A receptor; settings: previously shown
Sequence of 5-HT2A receptor (P28223 whole entry, looked up): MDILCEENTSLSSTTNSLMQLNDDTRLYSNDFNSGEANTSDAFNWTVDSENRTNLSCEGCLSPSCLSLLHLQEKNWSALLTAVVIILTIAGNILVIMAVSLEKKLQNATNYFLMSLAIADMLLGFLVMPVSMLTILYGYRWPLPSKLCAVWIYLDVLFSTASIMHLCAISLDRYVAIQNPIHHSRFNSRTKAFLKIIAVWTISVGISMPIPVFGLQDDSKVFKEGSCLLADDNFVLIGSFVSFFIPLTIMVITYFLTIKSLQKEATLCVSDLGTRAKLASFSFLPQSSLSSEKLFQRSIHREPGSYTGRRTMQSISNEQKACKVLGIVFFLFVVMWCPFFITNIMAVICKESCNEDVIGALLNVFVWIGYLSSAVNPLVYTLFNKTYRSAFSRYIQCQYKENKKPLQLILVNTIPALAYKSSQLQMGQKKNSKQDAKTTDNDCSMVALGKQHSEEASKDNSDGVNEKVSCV
From the text: as §1

[9] = 60 mg, evening, fed state, N = 9
[10] = 60 mg, morning, fasted state, N = 9
[11] = HV, 60 mg evening dosing, n = 12
[12] = human, 60 mg, evening, fed state, one line per subject and event

C[C@@]1(O)CC[C@@]2(C)[C@@H](CC[C@@H]3[C@@H]2CC[C@]2(C)[C@@H](C(=O)Cn4cc(C#N)cn4)CC[C@@H]32)C1 [CV-10155, 1-[2-[(3R,5S,8R,9S,10S,13S,14S,17S)-3-hydroxy-3,10,13-trimethyl-1,2,4,5,6,7,8,9,11,12,14,15,16,17-tetradecahydrocyclopenta[a]phenanthren-17-yl]-2-oxoethyl]pyrazole-4-carbonitrile]
fold higher efficiency at extra synaptic vs. synaptic channels [1]: 3 fold | preferential modulation of α4β3δ subtype compared to α1β2γ2 subtype ([1]; isomerically pure compositions): preferentially modulate | effect of food consumption on absorption ([2]; 30 mg oral, fed vs fasted): no clinically meaningful effect | Tmax ([2]; 135 mg SAD MTD): 2.83 h | Tmax ([2]; single oral dose, 5-200 mg): 2 to 4 h | half-life ([2]; single oral dose, 5-200 mg): 24 to 26 h | inter-subject variability (CV) of AUC and Cmax ([2]; single oral dose, 5-200 mg): ≤ 30% | dose proportionality of AUC and Cmax ([2]; single oral dose, 5-200 mg dose range): dose-proportional increase | dose-limiting adverse event [3]: Ataxia | SAD MTD ([3]; single ascending dose): ETX-155 135 mg SAD MTD | adverse events observed at 200 mg ([3]; single oral dose 200 mg, fasted): ataxia, tremor and tachycardia | most common adverse events ([3]; single oral dose, mild to moderate, only observed at the highest doses): Dizziness and somnolence | dose-limiting adverse events ([3]; single oral dose, range of 5-135 mg): No dose-limiting adverse events were observed | AE Back pain (Musculoskeletal and connective tissue disorders) [4, 9]: 1 # | AE Bloating (Gastrointestinal disorders) [4, 9]: 1 # | AE Dizziness (Nervous system disorders) [4, 9]: 1 # | AE Sleepiness (Nervous system disorders) [4, 9]: 1 # | AE Headache (Nervous system disorders) [4, 9]: 2 # | AE Dizziness (Nervous system disorders) [4, 10]: 1 # | AE Feeling sleepy (Nervous system disorders) [4, 10]: 1 # | AE Feeling tired (General disorders and administration site conditions) [4, 10]: 2 # | AE Tiredness (General disorders and administration site conditions) [4, 10]: 3 # | AE Sleepiness (Nervous system disorders) [4, 10]: 9 # | AE Headache (Nervous system disorders) [4, 10]: 2 # | Dizziness, AEs % of subjects [4, 11]: 16.7% | Headache, AEs % of subjects [4, 11]: 8.3% | Somnolence, AEs % of subjects [4, 11]: 8.3% | AE (per subject) [4, 12]: Dizziness; also recorded: Headache; also recorded: Somnolence; also recorded: Back pain; also recorded: Abdominal | AE duration [4, 12]: 20.50 h and 13.00 h and 14.50 h and 10.62 h and 39.25 h and 13.25 h and 06.50 h | AE onset from dose [4, 12]: pre-dose | AE severity [4, 12]: Mild (6×) and Moderate | adverse effects that interfere with sleeping ([4]; human, oral administration in the evening to fed subjects): does not produce adverse effects that interfere with sleeping | effect on cardiovascular or respiratory function [5]: does not affect | maximum safe starting dose (human equivalent dose/10) ([6]; from dog NOAEL): 19/6 | maximum safe starting dose (human equivalent dose/10) ([6]; from rat NOAEL): 7.2 mg/day | activity at all 18 GABAA receptor channels [7]: activity | activity at the 5-HT2A receptor [8]: no activity
